# Test results from patent publication US6653504B1, “Non-hygroscopic salts of active ingredients having therapeutical and/or nutritional activities and orally administrable compositions containing same” (Sigma-Tau Industrie Farmaceutiche Riunite S.p.A., priority 1999, dated 2003).
# Counter-ions that a name gives are not always drawn.
# Experiments:
# [1] = background statement, no conditions given; cited from earlier work
# [2] = Hygroscopicity: increase in weight and appearance after exposure to humidity; type: physicochemical; conditions: exposure to 70±5% relative humidity, at 25° C. for 24 hours
molecule,measurement,setting,value
C[N+](C)(C)C[C@H](O)CC(=O)O.C[N+](C)(C)C[C@H](O)CC(=O)O.O=C([O-])C(O)C(O)C(=O)[O-] [L(−)-carnitine tartrate],Hygroscopicity of known salts,[1],non-hygroscopic
CC(=O)O[C@H](CC(=O)O)C[N+](C)(C)C.O=C([O-])/C=C/C(=O)O [acetyl L(−)-carnitine acid fumarate],Hygroscopicity of known salts,[1],strongly hygroscopic
CC(=O)O[C@H](CC(=O)[O-])C[N+](C)(C)C [Acetyl-L-carnitine inner salt],Appearance,[2],deliquescent
same,Increase in weight (%),[2],19%
C[N+](C)(C)C[C@H](O)CC(=O)[O-] [L-carnitine inner salt],Appearance,[2],deliquescent
same,Increase in weight (%),[2],23%
CC(=O)O[C@H](CC(=O)O)C[N+](C)(C)C.[Cl-] [Acetyl-L-carnitine chloride],Appearance,[2],clumped mass
same,Increase in weight (%),[2],8%
L(−)-carnitine acid fumarate,Hygroscopicity of known salts,[1],non-hygroscopic
